Source: US11618742B2, “Radical polymerization initiator, composition containing same, cured product of composition, production method for cured product, and compound” (ADEKA CORPORATION, priority 2018, dated 2023)

Tests used:
[1] = Solubility in water; type: physicochemical; settings: 25° C., RH 65%, 100 g deionized water, added 0.1 g at a time
Experimental: Specifically, the measurement is performed by adding the compound in an amount of 0.1 g at a time.

[2] = Maximum absorption wavelength (absorption spectrum, spectrophotometer); type: physicochemical
Description: (2) load the measurement aqueous solution to a quartz cell (optical path length=10 mm, thickness 1.25 mm), and measure the absorption spectrum using a spectrophotometer (e.g., visible-ultraviolet absorption spectrometer V-670 manufactured by JASCO Corporation). As the absorption spectrum of the measurement aqueous solution, a corrected absorption spectrum obtained by measuring the absorption spectrum of water alone in advance and deducting this absorption spectrum of water from the absorption spectrum of the measurement aqueous solution is used. […] (2) The thus obtained measurement aqueous solutions were each loaded to a quartz cell (optical path length—10 mm, thickness 1.25 mm), and an absorption spectrum was measured using a spectrophotometer (e.g., visible-ultraviolet absorption spectrometer V-670 manufactured by JASCO Corporation). […] Further, as the absorption spectrum, a corrected absorption spectrum obtained by measuring the absorption spectrum of the solvent itself in advance and deducting this absorption spectrum of the solvent from the absorption spectrum of the measurement solution was used.

[3] = 0.1%-by-mass aqueous solution, range of 300 nm to 600 nm
[4] = measurement solution in acetonitrile (low solubility in water)

## O=C(O)c1cccc2c(=O)c3ccccc3sc12 [Compound 1]
[1]
  Solubility in 100 parts by mass of water: 0.9 parts by mass

## O=C(O)c1cccc2c(=O)c3ccccc3sc12 [Compound 61]
[1]
  Solubility in 100 parts by mass of water: 1.2 parts by mass

## CC(C)(O)C(=O)c1ccc(OCCO)cc1 [Compound 101]
[1]
  Solubility in 100 parts by mass of water: 0.8 parts by mass
[2]; [3]
  Maximum absorption wavelength: 270 nm

## O=C(c1ccccc1)c1ccccc1 [Compound 103, benzophenone]
[2]; [4]
  Maximum absorption wavelength: 253 nm

## CC12CCC(C(=O)C1=O)C2(C)C (centres unmarked) [Compound 104, camphor quinone]
[1]
  Solubility in 100 parts by mass of water: <0.1 parts by mass
[2]; [4]
  Maximum absorption wavelength: 460 nm

## Cc1cc(C)c(C(=O)P(=O)(O)c2ccccc2)c(C)c1 [Compound 105]
[1]
  Solubility in 100 parts by mass of water: ≥50 parts by mass
[2]; [3]
  Maximum absorption wavelength: 371 nm

## O=C(O)c1cccc2c(=O)c3ccccc3sc12 [Compound 106, thioxanthone carboxylic acid]
[1]
  Solubility in 100 parts by mass of water: <0.1 parts by mass
[2]; [4]
  Maximum absorption wavelength: 391 nm
